Results reported in patent US10034896B2, “Compositions and methods for treatment of osteoporosis and other indications” (priority 2012, dated 2018).

Assays:
[1] = Nitric oxide gas bubbled through carrier, weight gain; type: physicochemical; conditions: NO gas bubbled 40 hr, 25 ° C.
Description: This example illustrates one technique for preparing a composition in accordance with one embodiment of the invention. An accurate amount of a carrier (HNC 167-62) (see below) was introduced into a system. The carrier weight used in these experiments was approximately 250 g and the vessel size was 500 ml. The vessel was equipped with a mechanical stirrer, gas inlet, and gas outlet and was previously purged with argon for about an hour. The temperature of the carrier was kept at about 25-30° C. NO gas regulated at 5 psi (1 psi is about 6,900 Pa) and was then introduced at a controlled rate of about 1 bubble/s with continuous stirring. […] After 6 hours, the weight of the carrier had increased by 0.15%, by 12 hours by 0.25%, and by 24 hours by 0.56%. These increases in weight were believed to be significant considering the relative small molecular weight of NO versus the carrier. […] The carrier also can solidify upon cooling if the carrier is initially a solid at lower temperature.
Each carrier was taken in a 500 mL three necked flask equipped with a mechanical stirrer, gas inlet and a gas outlet. The system was purged with argon for one hour at room temperature (25° C.). Then nitric oxide gas was bubbled into the system. Then, nitric oxide gas was bubbled through carrier for stipulated amount of time. The changes in weight and color were noted. […]

[2] = test system: capillary circulation of the skin; experiment: Laser Doppler study of creams in five human subjects, Example 7; type: in vivo; conditions: positive control formulation containing 0.1% methyl nicotinate
Excerpt: This example illustrates delivery of nitric oxide formulations to five human subjects, using procedures and formulations similar to those discussed in Example 5. Each person served as their own control for the testing. A Moor Instruments Laser Doppler was used to determine circulation. […] The formulations used produce positive, almost immediate results when applied to the skin which, in these studies, was manifested by vasodilatation of the cutaneous vascular system.
For each subject, the following creams were applied: a negative control formulation (containing no NO), 0.010 gram of a 10,000 ppm NO formulation, 0.020 gram of a 10,000 ppm NO formulation, and a positive control formulation containing 0.1% methyl nicotinate. The formulations were prepared using procedures similar to those discussed in Example 1.

[3] = test system: micro-capillary blood flow to skin; experiment: Laser Doppler study in closed Hilltop chamber on forearm, Example 5; type: in vivo, human; conditions: applied to the skin at 1/10% in alcohol
Excerpt: The formulation used in these studies contained nitric oxide dispersed in a lipid matrix. […] Nitric oxide is a very rapid acting molecule, and these studies used a system that employed laser Doppler with a covered chamber. The formulation was placed into the chamber and then attached to the skin by an adhesive layer on the covering. This provided a stable measuring device as determined by multiple normal evaluations of the capillary blood flow without treatment of nitric oxide.
A known positive control, methyl nicotinate, was applied to the skin at a concentration of 1/10% in alcohol. […] The vascular dynamics are such that when the blood vessels dilate physical parameters follow Bernoulli's law. […] The laser Doppler device accurately measured these parameters.
In these studies, the participants were healthy females aged 30 to 55 years. They were in good health as determined by the medical history and were not taking any prescription medications. All study participants read and signed the informed consent statement prior to any study procedures being performed. […]
A Moor Instruments DRT4 Laser Doppler Blood Flow Monitor (Devon, England) was used in these studies. The laser Doppler technique measured blood flow in the microcapillaries of the skin that are close to the skin surface and the blood flow in underlying arterioles and venules that help to regulate skin temperature. […]

SMILES	% Wt. gain [1] [%]	vasodilatation (laser Doppler) [2]	laser Doppler response to positive control [3]
OCCCO [1,3-Propanediol, 1,3-propanediol]	0.09		
COC(=O)c1cccnc1 [methyl nicotinate]		vasodilatation was observed	rapid response typical of the vasodilator
